{"source": "paper doi:10.1101/2024.09.25.615046", "about": "“Identification of SLC45A4 as a pain gene encoding a neuronal polyamine transporter” (bioRxiv, 2024)", "key": {"[1]": {"target": "T1, SLC45A4 (HsSLC45A4) (Homo sapiens, UniProt Q5BKX6)", "T1 sequence (Q5BKX6 1-768)": "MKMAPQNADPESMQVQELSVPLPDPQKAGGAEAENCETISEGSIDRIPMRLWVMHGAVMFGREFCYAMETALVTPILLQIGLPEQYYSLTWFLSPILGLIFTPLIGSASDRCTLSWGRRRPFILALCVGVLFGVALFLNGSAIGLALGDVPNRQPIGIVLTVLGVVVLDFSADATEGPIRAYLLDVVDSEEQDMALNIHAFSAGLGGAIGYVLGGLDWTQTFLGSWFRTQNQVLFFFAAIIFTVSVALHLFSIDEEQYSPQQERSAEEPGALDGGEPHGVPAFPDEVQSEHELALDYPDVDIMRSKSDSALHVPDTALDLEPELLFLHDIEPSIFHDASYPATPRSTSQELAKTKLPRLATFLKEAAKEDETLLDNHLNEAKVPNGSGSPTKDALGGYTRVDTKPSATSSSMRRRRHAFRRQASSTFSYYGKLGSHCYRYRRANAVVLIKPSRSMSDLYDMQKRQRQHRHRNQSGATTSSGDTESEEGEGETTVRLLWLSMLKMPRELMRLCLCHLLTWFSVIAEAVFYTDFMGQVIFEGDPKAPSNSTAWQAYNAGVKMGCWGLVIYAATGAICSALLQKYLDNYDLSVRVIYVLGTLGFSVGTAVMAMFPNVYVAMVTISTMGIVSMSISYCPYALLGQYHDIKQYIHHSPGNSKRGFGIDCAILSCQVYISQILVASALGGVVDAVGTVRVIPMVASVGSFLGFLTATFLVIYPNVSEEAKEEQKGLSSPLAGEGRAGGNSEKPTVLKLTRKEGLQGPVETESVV", "assay": "nanoDSF thermal shift, purified protein", "format": "binding", "parameters": "full-length; uptake: C-terminal FLAG tag, pLexM, overexpressed in mouse Neuro-2A cells; nanoDSF: purified in DDM:CHS (eGFP-His tag removed by TEV)", "details": "2.5-50 mM metabolite, DDM:CHS, 150 mM NaCl, 20 mM Tris or MES pH 7.5"}, "[2]": {"target": "T1, SLC45A4 (HsSLC45A4)", "assay": "competition of […]-spermidine uptake, Neuro-2A cells", "format": "cell-based", "parameters": "full-length; uptake: C-terminal FLAG tag, pLexM, overexpressed in mouse Neuro-2A cells", "details": "1 uM 14C-spermidine, pH 7.5, 37 °C; unreliable unit: printed mM is probably µM (lost symbol font)"}}, "data": [{"smiles": "NCCCNCCCCNCCCN", "note": "[Spm]", "values": [{"measurement": "thermal stability", "setting": "[1]", "result": "polyamines Spm and Spd eliciting the largest response"}]}, {"smiles": "NCCCCNCCCN", "note": "[Spd]", "values": [{"measurement": "thermal stability", "setting": "[1]", "result": "polyamines Spm and Spd eliciting the largest response"}]}, {"smiles": "NCCCCCN", "note": "[Cad]", "values": [{"measurement": "IC50", "setting": "[2]", "result": 67, "unit": "mM"}]}, {"smiles": "NCCCCN", "note": "[Put]", "values": [{"measurement": "IC50", "setting": "[2]", "result": 74, "unit": "mM"}]}]}
